System: NIH3T3
Assay: Antiproliferative activity against mouse NIH/3T3 cells assessed as inhibition of cell growth incubated for 24 to 48 hrs by CCK8 assay
Assay type: functional, cell-based

SMILES	IC50 [nM]
O=C(NO)c1ccc(CN2C(=O)C3=C(CCN(Cc4cccnc4)C3)N3CCN=C23)cc1	8400
O=C(NO)c1ccc(CN2C(=O)C3=C(CCN(Cc4cccc(F)c4)C3)N3CCN=C23)cc1	6510
O=C(CCCCCCNC(=O)c1cnc(N(c2ccccc2)c2ccccc2)nc1)NO [RICOLINOSTAT]	3530
O=C(NO)c1ccc(CN2C(=O)C3=C(CCN(Cc4ccc(Cl)c(C(F)(F)F)c4)C3)N3CCN=C23)cc1	9880
Cc1cccc(CN2CCC3=C(C2)C(=O)N(Cc2ccc(C(=O)NO)cc2)C2=NCCN23)c1	90
O=C(NO)c1ccc(CN2C(=O)C3=C(CCN(Cc4ccccc4)C3)N3CCN=C23)cc1	1000

System: RPMI-8226
Assay: Antiproliferative activity against human RPMI-8226 cells assessed as inhibition of cell growth incubated for 24 to 48 hrs by CCK8 assay
Assay type: functional, cell-based

SMILES	IC50 [nM]
O=C(NO)c1ccc(CN2C(=O)C3=C(CCN(Cc4cccnc4)C3)N3CCN=C23)cc1	2880
O=C(NO)c1ccc(CN2C(=O)C3=C(CCN(Cc4cccc(F)c4)C3)N3CCN=C23)cc1	1580
O=C(NO)c1ccc(CN2C(=O)C3=C(CCN(Cc4ccc(Cl)c(C(F)(F)F)c4)C3)N3CCN=C23)cc1	1080
Cc1cccc(CN2CCC3=C(C2)C(=O)N(Cc2ccc(C(=O)NO)cc2)C2=NCCN23)c1	1060

Stronger by IC50, values ahead:

IC50 [nM]	SMILES
850	O=C(CCCCCCNC(=O)c1cnc(N(c2ccccc2)c2ccccc2)nc1)NO [RICOLINOSTAT]
620	O=C(NO)c1ccc(CN2C(=O)C3=C(CCN(Cc4ccccc4)C3)N3CCN=C23)cc1

Molecular target: T1, Protein deacetylase HDAC6 (Homo sapiens, UniProt Q9UBN7)
T1 sequence (Q9UBN7 whole entry): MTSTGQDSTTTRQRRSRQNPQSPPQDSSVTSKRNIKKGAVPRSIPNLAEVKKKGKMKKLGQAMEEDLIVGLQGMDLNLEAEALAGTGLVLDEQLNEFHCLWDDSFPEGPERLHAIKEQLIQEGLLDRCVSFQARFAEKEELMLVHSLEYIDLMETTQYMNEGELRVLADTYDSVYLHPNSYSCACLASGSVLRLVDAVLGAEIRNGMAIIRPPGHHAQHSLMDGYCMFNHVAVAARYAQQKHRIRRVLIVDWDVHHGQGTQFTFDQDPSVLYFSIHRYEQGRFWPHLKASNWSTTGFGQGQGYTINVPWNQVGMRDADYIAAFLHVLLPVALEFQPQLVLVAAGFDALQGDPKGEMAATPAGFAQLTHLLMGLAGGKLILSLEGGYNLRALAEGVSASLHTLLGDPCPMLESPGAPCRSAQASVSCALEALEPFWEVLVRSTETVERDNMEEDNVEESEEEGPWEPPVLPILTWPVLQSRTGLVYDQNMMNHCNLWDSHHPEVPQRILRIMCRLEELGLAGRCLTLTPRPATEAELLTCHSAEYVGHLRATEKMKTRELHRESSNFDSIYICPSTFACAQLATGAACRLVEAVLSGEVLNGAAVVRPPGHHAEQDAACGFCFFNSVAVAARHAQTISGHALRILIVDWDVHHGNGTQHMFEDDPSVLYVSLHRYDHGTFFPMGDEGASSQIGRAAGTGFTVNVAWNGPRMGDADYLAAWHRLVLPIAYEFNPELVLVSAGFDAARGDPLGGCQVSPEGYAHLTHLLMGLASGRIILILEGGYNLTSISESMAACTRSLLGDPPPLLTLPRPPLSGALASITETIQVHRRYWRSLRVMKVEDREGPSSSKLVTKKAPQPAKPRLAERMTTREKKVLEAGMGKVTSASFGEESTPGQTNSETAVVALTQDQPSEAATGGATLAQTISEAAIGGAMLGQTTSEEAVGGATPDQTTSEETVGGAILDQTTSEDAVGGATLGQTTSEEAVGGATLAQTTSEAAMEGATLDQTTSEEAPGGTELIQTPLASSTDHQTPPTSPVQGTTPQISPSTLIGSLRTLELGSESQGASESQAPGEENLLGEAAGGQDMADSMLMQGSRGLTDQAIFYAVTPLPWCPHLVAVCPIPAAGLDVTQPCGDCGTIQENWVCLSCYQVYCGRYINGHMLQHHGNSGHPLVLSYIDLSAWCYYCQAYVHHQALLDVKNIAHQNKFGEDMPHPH
Assay: Inhibition of HDAC6 (unknown origin) incubated for 30 mins by fluorometric analysis

IC50 [nM]	SMILES
137	O=C(NO)c1ccc(CN2C(=O)C3=C(CCN(Cc4cccnc4)C3)N3CCN=C23)cc1
64.4	O=C(NO)c1ccc(CN2C(=O)C3=C(CCN(Cc4cccc(F)c4)C3)N3CCN=C23)cc1
36.8	O=C(NO)c1ccc(CN2C(=O)C3=C(CCN(Cc4ccc(Cl)c(C(F)(F)F)c4)C3)N3CCN=C23)cc1
54.8	Cc1cccc(CN2CCC3=C(C2)C(=O)N(Cc2ccc(C(=O)NO)cc2)C2=NCCN23)c1
65.4	O=C(NO)c1ccc(CN2C(=O)C3=C(CCN(Cc4ccccc4)C3)N3CCN=C23)cc1

Molecular target: Histone deacetylase 1 (Homo sapiens) (UniProt Q13547)
Assay: Inhibition of HDAC1 (unknown origin) at 1 uM incubated for 30 mins by fluorometric analysis

Sequence of Histone deacetylase 1 (Homo sapiens) (Q13547 whole entry): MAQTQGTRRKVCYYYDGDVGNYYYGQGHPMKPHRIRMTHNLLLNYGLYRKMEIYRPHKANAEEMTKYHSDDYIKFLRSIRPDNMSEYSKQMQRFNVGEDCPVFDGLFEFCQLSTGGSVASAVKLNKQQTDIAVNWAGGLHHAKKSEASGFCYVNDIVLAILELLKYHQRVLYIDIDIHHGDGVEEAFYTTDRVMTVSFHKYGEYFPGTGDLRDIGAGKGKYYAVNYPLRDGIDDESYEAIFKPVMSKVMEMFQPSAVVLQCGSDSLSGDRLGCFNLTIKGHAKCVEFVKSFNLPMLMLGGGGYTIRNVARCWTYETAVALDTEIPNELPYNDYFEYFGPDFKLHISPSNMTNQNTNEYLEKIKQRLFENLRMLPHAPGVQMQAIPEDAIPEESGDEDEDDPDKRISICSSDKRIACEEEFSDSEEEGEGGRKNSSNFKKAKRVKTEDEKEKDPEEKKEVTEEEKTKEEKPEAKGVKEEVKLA

inhibition [%]	SMILES
9.3	O=C(NO)c1ccc(CN2C(=O)C3=C(CCN(Cc4cccnc4)C3)N3CCN=C23)cc1
47.9	O=C(NO)c1ccc(CN2C(=O)C3=C(CCN(Cc4cccc(F)c4)C3)N3CCN=C23)cc1
27.2	O=C(NO)c1ccc(CN2C(=O)C3=C(CCN(Cc4ccc(Cl)c(C(F)(F)F)c4)C3)N3CCN=C23)cc1
44.7	Cc1cccc(CN2CCC3=C(C2)C(=O)N(Cc2ccc(C(=O)NO)cc2)C2=NCCN23)c1
68.3	O=C(NO)c1ccc(CN2C(=O)C3=C(CCN(Cc4ccccc4)C3)N3CCN=C23)cc1

Molecular target: T2, Protein deacetylase HDAC6 (Homo sapiens) (UniProt Q9UBN7)
T2 sequence (whole entry): T1 sequence (Q9UBN7 whole entry)
Assay: Inhibition of HDAC6 (unknown origin) at 1 uM incubated for 30 mins by fluorometric analysis

SMILES	inhibition [%]
O=C(NO)c1ccc(CN2C(=O)C3=C(CCN(Cc4cccnc4)C3)N3CCN=C23)cc1	95.1
O=C(NO)c1ccc(CN2C(=O)C3=C(CCN(Cc4cccc(F)c4)C3)N3CCN=C23)cc1	97.1
O=C(NO)c1ccc(CN2C(=O)C3=C(CCN(Cc4ccc(Cl)c(C(F)(F)F)c4)C3)N3CCN=C23)cc1	96.2
Cc1cccc(CN2CCC3=C(C2)C(=O)N(Cc2ccc(C(=O)NO)cc2)C2=NCCN23)c1	93.8

The remaining lines, values ahead:

inhibition [%]	SMILES
98.5	O=C(CCCCCCNC(=O)c1cnc(N(c2ccccc2)c2ccccc2)nc1)NO [RICOLINOSTAT]
97.2	O=C(NO)c1ccc(CN2C(=O)C3=C(CCN(Cc4ccccc4)C3)N3CCN=C23)cc1

Molecular target: T3, Histone deacetylase 8 (Homo sapiens) (UniProt Q9BY41)
T3 sequence (whole entry): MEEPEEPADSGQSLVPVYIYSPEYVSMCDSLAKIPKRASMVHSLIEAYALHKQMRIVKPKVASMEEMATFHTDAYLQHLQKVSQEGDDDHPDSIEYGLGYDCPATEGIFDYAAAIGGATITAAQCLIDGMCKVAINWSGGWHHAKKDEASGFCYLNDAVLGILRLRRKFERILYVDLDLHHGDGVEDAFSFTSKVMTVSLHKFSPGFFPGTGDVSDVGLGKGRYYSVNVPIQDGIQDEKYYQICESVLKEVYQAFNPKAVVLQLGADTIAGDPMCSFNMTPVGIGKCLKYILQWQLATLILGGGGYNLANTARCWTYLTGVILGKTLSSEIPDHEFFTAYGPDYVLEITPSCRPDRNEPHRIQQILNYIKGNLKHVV
Assay: Inhibition of HDAC8 (unknown origin) at 1 uM incubated for 30 mins by fluorometric analysis

inhibition [%]	SMILES
66.4	O=C(NO)c1ccc(CN2C(=O)C3=C(CCN(Cc4cccnc4)C3)N3CCN=C23)cc1
75	O=C(NO)c1ccc(CN2C(=O)C3=C(CCN(Cc4cccc(F)c4)C3)N3CCN=C23)cc1
48.2	O=C(NO)c1ccc(CN2C(=O)C3=C(CCN(Cc4ccc(Cl)c(C(F)(F)F)c4)C3)N3CCN=C23)cc1
74.9	Cc1cccc(CN2CCC3=C(C2)C(=O)N(Cc2ccc(C(=O)NO)cc2)C2=NCCN23)c1
72.8	O=C(NO)c1ccc(CN2C(=O)C3=C(CCN(Cc4ccccc4)C3)N3CCN=C23)cc1

Molecular target: Histone deacetylase 2 (Homo sapiens, UniProt Q92769)
Assay: Inhibition of HDAC2 (unknown origin) at 1 uM incubated for 30 mins by fluorometric analysis

Sequence of Histone deacetylase 2 (Q92769 whole entry): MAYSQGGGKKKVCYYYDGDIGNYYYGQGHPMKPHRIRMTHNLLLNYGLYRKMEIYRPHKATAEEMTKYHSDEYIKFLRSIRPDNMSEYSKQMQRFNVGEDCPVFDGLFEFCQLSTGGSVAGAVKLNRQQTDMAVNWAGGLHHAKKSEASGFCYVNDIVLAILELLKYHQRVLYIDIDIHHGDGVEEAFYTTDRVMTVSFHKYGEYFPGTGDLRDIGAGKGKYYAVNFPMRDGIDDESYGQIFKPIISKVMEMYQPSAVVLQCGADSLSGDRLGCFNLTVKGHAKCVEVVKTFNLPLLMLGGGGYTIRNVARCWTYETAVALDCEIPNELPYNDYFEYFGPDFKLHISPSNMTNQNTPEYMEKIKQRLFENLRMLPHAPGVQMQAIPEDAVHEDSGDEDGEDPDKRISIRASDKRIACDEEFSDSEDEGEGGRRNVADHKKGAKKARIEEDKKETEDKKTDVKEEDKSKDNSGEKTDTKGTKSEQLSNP

inhibition [%]	SMILES
46.3	O=C(NO)c1ccc(CN2C(=O)C3=C(CCN(Cc4cccnc4)C3)N3CCN=C23)cc1
61.9	O=C(NO)c1ccc(CN2C(=O)C3=C(CCN(Cc4cccc(F)c4)C3)N3CCN=C23)cc1
62.7	O=C(NO)c1ccc(CN2C(=O)C3=C(CCN(Cc4ccc(Cl)c(C(F)(F)F)c4)C3)N3CCN=C23)cc1
61.7	Cc1cccc(CN2CCC3=C(C2)C(=O)N(Cc2ccc(C(=O)NO)cc2)C2=NCCN23)c1
56.8	O=C(NO)c1ccc(CN2C(=O)C3=C(CCN(Cc4ccccc4)C3)N3CCN=C23)cc1

System: Fibroblast
Assay: Antiproliferative activity against human primary fibroblasts assessed as inhibition of cell growth incubated for 24 to 48 hrs by CCK8 assay
Assay type: functional, cell-based

SMILES	IC50 [nM]
O=C(NO)c1ccc(CN2C(=O)C3=C(CCN(Cc4cccnc4)C3)N3CCN=C23)cc1	4580
O=C(NO)c1ccc(CN2C(=O)C3=C(CCN(Cc4cccc(F)c4)C3)N3CCN=C23)cc1	26700
O=C(CCCCCCNC(=O)c1cnc(N(c2ccccc2)c2ccccc2)nc1)NO [RICOLINOSTAT]	35100
O=C(NO)c1ccc(CN2C(=O)C3=C(CCN(Cc4ccc(Cl)c(C(F)(F)F)c4)C3)N3CCN=C23)cc1	45300
Cc1cccc(CN2CCC3=C(C2)C(=O)N(Cc2ccc(C(=O)NO)cc2)C2=NCCN23)c1	50700
O=C(NO)c1ccc(CN2C(=O)C3=C(CCN(Cc4ccccc4)C3)N3CCN=C23)cc1	30600

Molecular target: Histone deacetylase 3 (Homo sapiens, UniProt O15379)
Assay: Inhibition of HDAC3 (unknown origin) at 1 uM incubated for 30 mins by fluorometric analysis

Sequence of Histone deacetylase 3 (O15379 whole entry): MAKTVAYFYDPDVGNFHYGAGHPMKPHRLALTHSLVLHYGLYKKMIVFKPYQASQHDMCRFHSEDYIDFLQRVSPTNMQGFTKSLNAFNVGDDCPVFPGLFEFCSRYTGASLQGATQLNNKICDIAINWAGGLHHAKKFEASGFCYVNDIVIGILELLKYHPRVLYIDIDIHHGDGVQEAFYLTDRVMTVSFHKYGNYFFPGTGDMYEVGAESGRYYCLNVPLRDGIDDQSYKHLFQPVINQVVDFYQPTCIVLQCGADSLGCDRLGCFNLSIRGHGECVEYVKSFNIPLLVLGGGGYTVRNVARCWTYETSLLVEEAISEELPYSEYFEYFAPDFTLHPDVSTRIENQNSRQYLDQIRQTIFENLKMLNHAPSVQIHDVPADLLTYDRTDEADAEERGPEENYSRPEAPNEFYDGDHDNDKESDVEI

inhibition [%]	SMILES
36.2	O=C(NO)c1ccc(CN2C(=O)C3=C(CCN(Cc4cccnc4)C3)N3CCN=C23)cc1
56.4	O=C(NO)c1ccc(CN2C(=O)C3=C(CCN(Cc4cccc(F)c4)C3)N3CCN=C23)cc1
43.8	O=C(NO)c1ccc(CN2C(=O)C3=C(CCN(Cc4ccc(Cl)c(C(F)(F)F)c4)C3)N3CCN=C23)cc1
50.6	Cc1cccc(CN2CCC3=C(C2)C(=O)N(Cc2ccc(C(=O)NO)cc2)C2=NCCN23)c1
51.9	O=C(NO)c1ccc(CN2C(=O)C3=C(CCN(Cc4ccccc4)C3)N3CCN=C23)cc1

From ChEMBL document CHEMBL6092154, “Design, synthesis, and evaluation of a novel TRAIL-activated HDAC6 inhibitor for the treatment of pulmonary fibrosis” (Bioorg Med Chem, 2024)
